Data reported in PubChem BioAssay AID2060907 (Molecular Pharmacology Branch, DTP, NCI, 2025).
One block for each compound: values may come before it.

Tested on: 388556-164-R-J1-PDC complex spheroid viability
Test: Anticancer human tumor 388556-164-R-J1-PDC patient-derived colon adenocarcinoma cell line growth inhibition [RAS]
Conditions: for IC50: curve of first compound; for viability, T/C: stronger effect = lower value
Outline: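 Multi-cell-type spheroids: tumor cells plus HUVEC endothelial cells and mesenchymal stem cells. RAS-pathway inhibitors were combined with targeted agents, each dosed in half-log steps down from clinical Cmax, or from 10 microM when Cmax was unknown.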

[1] = second compound 0.000949 µM, first compound 0.0316 µM
[2] = second compound 0.000949 µM, first compound 0.1 µM
[3] = second compound 0.000949 µM, first compound 0.316 µM
[4] = second compound 0.000949 µM, first compound 1 µM
[5] = second compound 0.000949 µM, first compound 3.16 µM
[6] = second compound 0.000949 µM, first compound 10 µM
[7] = second compound 0.003 µM, first compound 0.0316 µM
[8] = second compound 0.003 µM, first compound 0.1 µM
[9] = second compound 0.003 µM, first compound 0.316 µM
[10] = second compound 0.003 µM, first compound 1 µM
[11] = second compound 0.003 µM, first compound 3.16 µM
[12] = second compound 0.003 µM, first compound 10 µM
[13] = second compound 0.00949 µM, first compound 0.0316 µM
[14] = second compound 0.00949 µM, first compound 0.1 µM
[15] = second compound 0.00949 µM, first compound 0.316 µM
[16] = second compound 0.00949 µM, first compound 1 µM
[17] = second compound 0.00949 µM, first compound 3.16 µM
[18] = second compound 0.00949 µM, first compound 10 µM
[19] = second compound 0.03 µM, first compound 0.0316 µM
[20] = second compound 0.03 µM, first compound 0.1 µM
[21] = second compound 0.03 µM, first compound 0.316 µM
[22] = second compound 0.03 µM, first compound 1 µM
[23] = second compound 0.03 µM, first compound 3.16 µM
[24] = second compound 0.03 µM, first compound 10 µM
[25] = second compound 0.0949 µM, first compound 0.0316 µM
[26] = second compound 0.0949 µM, first compound 0.1 µM
[27] = second compound 0.0949 µM, first compound 0.316 µM
[28] = second compound 0.0949 µM, first compound 1 µM
[29] = second compound 0.0949 µM, first compound 3.16 µM
[30] = second compound 0.0949 µM, first compound 10 µM
[31] = second compound 0.3 µM, first compound 0.0316 µM
[32] = second compound 0.3 µM, first compound 0.1 µM
[33] = second compound 0.3 µM, first compound 0.316 µM
[34] = second compound 0.3 µM, first compound 1 µM
[35] = second compound 0.3 µM, first compound 3.16 µM
[36] = second compound 0.3 µM, first compound 10 µM
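Also: spheroids exposed to compound for 7 days before readout.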
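For viability, T/C in this document: 100% = DMSO vehicle control luminescence.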

IC50 (second compound 0.000949 µM): > 10 µM
IC50 (second compound 0.003 µM): > 10 µM
IC50 (second compound 0.00949 µM): 9.58 µM
IC50 (second compound 0.03 µM): 7.84 µM
IC50 (second compound 0.0949 µM): > 10 µM
IC50 (second compound 0.3 µM): 7.83 µM
Structure (SMILES): CC(Nc1ccc2c(c1)OCCn1cc(N3C(=O)OCC3C(F)F)nc1-2)C(N)=O (stereo unspecified) + CCn1c(-c2cccnc2C(C)OC)c2c3cc(ccc31)N1CCOC(CC(NC(=O)C(C(C)C)N(C)C(=O)C3(F)CCN(C(=O)C#CC(C)(C)N(C)C)CC3)C(=O)N3CCCC(N3)C(=O)OCC(C)(C)C2)C1
viability, T/C [1]: 96.7%
viability, T/C [2]: 83.7%
viability, T/C [3]: 73%
viability, T/C [4]: 79.4%
viability, T/C [5]: 59.8%
viability, T/C [6]: 50.9%
viability, T/C [7]: 102%
viability, T/C [8]: 82.3%
viability, T/C [9]: 82.7%
viability, T/C [10]: 67.4%
viability, T/C [11]: 66.7%
viability, T/C [12]: 50.1%
viability, T/C [13]: 87.1%
viability, T/C [14]: 89.5%
viability, T/C [15]: 80.7%
viability, T/C [16]: 69%
viability, T/C [17]: 68%
viability, T/C [18]: 48.1%
viability, T/C [19]: 92.4%
viability, T/C [20]: 83.6%
viability, T/C [21]: 80.7%
viability, T/C [22]: 69.6%
viability, T/C [23]: 66.3%
viability, T/C [24]: 44.4%
viability, T/C [25]: 95.8%
viability, T/C [26]: 79.1%
viability, T/C [27]: 72.3%
viability, T/C [28]: 71.4%
viability, T/C [29]: 62.9%
viability, T/C [30]: 50.8%
viability, T/C [31]: 76.7%
viability, T/C [32]: 71%
viability, T/C [33]: 70.8%
viability, T/C [34]: 64.9%
viability, T/C [35]: 61.4%
viability, T/C [36]: 46.6%

IC50 (second compound 0.000949 µM): > 1 µM
IC50 (second compound 0.003 µM): > 1 µM
IC50 (second compound 0.00949 µM): > 1 µM
IC50 (second compound 0.03 µM): > 1 µM
IC50 (second compound 0.0949 µM): > 1 µM
IC50 (second compound 0.3 µM): > 1 µM
Structure (SMILES): Nc1ccn(C2OC(CO)C(O)C2(F)F)c(=O)n1 (stereo unspecified) + CCn1c(-c2cccnc2C(C)OC)c2c3cc(ccc31)N1CCOC(CC(NC(=O)C(C(C)C)N(C)C(=O)C3(F)CCN(C(=O)C#CC(C)(C)N(C)C)CC3)C(=O)N3CCCC(N3)C(=O)OCC(C)(C)C2)C1
viability, T/C (second compound 0.000949 µM, first compound 0.00316 µM): 96%
viability, T/C (second compound 0.000949 µM, first compound 0.01 µM): 85.5%
viability, T/C [1]: 77.4%
viability, T/C [2]: 71.8%
viability, T/C [3]: 71.6%
viability, T/C [4]: 64.1%
viability, T/C (second compound 0.003 µM, first compound 0.00316 µM): 102%
viability, T/C (second compound 0.003 µM, first compound 0.01 µM): 90.5%
viability, T/C [7]: 76.8%
viability, T/C [8]: 72.1%
viability, T/C [9]: 72.4%
viability, T/C [10]: 65.8%
viability, T/C (second compound 0.00949 µM, first compound 0.00316 µM): 99.1%
viability, T/C (second compound 0.00949 µM, first compound 0.01 µM): 91.8%
viability, T/C [13]: 78.6%
viability, T/C [14]: 69.4%
viability, T/C [15]: 70%
viability, T/C [16]: 64.5%
viability, T/C (second compound 0.03 µM, first compound 0.00316 µM): 98.4%
viability, T/C (second compound 0.03 µM, first compound 0.01 µM): 92.7%
viability, T/C [19]: 79%
viability, T/C [20]: 67.5%
viability, T/C [21]: 70.6%
viability, T/C [22]: 61.7%
viability, T/C (second compound 0.0949 µM, first compound 0.00316 µM): 90.6%
viability, T/C (second compound 0.0949 µM, first compound 0.01 µM): 86.3%
viability, T/C [25]: 74.7%
viability, T/C [26]: 67.6%
viability, T/C [27]: 68.1%
viability, T/C [28]: 62.2%
viability, T/C (second compound 0.3 µM, first compound 0.00316 µM): 81.7%
viability, T/C (second compound 0.3 µM, first compound 0.01 µM): 78%
viability, T/C [31]: 69.8%
viability, T/C [32]: 68.4%
viability, T/C [33]: 67.2%
viability, T/C [34]: 59.5%

Structure (SMILES): Cc1nc(N2CCC3(CC2)COC(C)C3N)c(CO)nc1Sc1ccnc(N)c1Cl (stereo unspecified)
viability, T/C (compound 0.1 µM): 81.2% [middle of 4 runs]
viability, T/C (compound 0.316 µM): 70.5% [middle of 4 runs]
viability, T/C (compound 1 µM): 62.4% [middle of 4 runs]
viability, T/C (compound 3.16 µM): 53.9% [middle of 4 runs]
viability, T/C (compound 10 µM): 46.1% [middle of 4 runs]

IC50 (second compound 0.000949 µM): > 10 µM
IC50 (second compound 0.003 µM): > 10 µM
IC50 (second compound 0.00949 µM): 9.45 µM
IC50 (second compound 0.03 µM): > 10 µM
IC50 (second compound 0.0949 µM): < 0.0316 µM
IC50 (second compound 0.3 µM): < 0.0316 µM
Structure (SMILES): CC1(O)CCCC1n1c(=O)c(C(F)F)cc2cnc(NC3CCN(S(C)(=O)=O)CC3)nc21 (stereo unspecified) + CCn1c(-c2cc(N3CCN(C)CC3)cnc2C(C)OC)c2c3cc(ccc31)-c1csc(n1)CC(NC(=O)C1CC1C)C(=O)N1CCCC(N1)C(=O)OCC(C)(C)C2
viability, T/C [1]: 91.1%
viability, T/C [2]: 94.2%
viability, T/C [3]: 89.8%
viability, T/C [4]: 91.6%
viability, T/C [5]: 94.1%
viability, T/C [6]: 61.7%
viability, T/C [7]: 102%
viability, T/C [8]: 91.7%
viability, T/C [9]: 90%
viability, T/C [10]: 78.7%
viability, T/C [11]: 87.3%
viability, T/C [12]: 62.8%
viability, T/C [13]: 78.8%
viability, T/C [14]: 75.4%
viability, T/C [15]: 80.6%
viability, T/C [16]: 77.9%
viability, T/C [17]: 72.7%
viability, T/C [18]: 48.8%
viability, T/C [19]: 62.6%
viability, T/C [20]: 58.5%
viability, T/C [21]: 64.9%
viability, T/C [22]: 59.4%
viability, T/C [23]: 66%
viability, T/C [24]: 44.2%
viability, T/C [25]: 46.7%
viability, T/C [26]: 44%
viability, T/C [27]: 47.3%
viability, T/C [28]: 42.4%
viability, T/C [29]: 45.7%
viability, T/C [30]: 35.1%
viability, T/C [31]: 31.2%
viability, T/C [32]: 37%
viability, T/C [33]: 33.4%
viability, T/C [34]: 38.8%
viability, T/C [35]: 38.1%
viability, T/C [36]: 24.1%
